Results as given in patent US5747506A, “Isoquinoline compounds, compositions containing them and their pharmaceutical uses” (Novartis AG, priority 1993, dated 1998).
Where two headings read alike, the source gives them in different places.

Assays:
[1] = tested on: PDE IV; assay: inhibition of PDE IV added to plasma after administration to conscious dogs; assay type: in vivo; settings: up to 0.3 mg/kg i.v. or 0.6 mg/kg p.o., hydrogen-oxalate salt
[2] = tested on: cardiovascular effects; assay: Doppler aortic flow test in the rabbit; assay type: in vivo; settings: hydrogen-oxalate salt
Excerpt: Thus in a series of experiments using the Doppler aortic flow test in the rabbit [J. Pharmacol. Meth.

[3] = tested on: bacterial endotoxin (LPS) induced airways obstruction and lethality; assay: TEST E: Bacterial Endotoxin [LPS] Induced Lethality in the Guinea Pig; assay type: in vivo; settings: 100/μg/kg/min.; hydrogen-oxalate salt
Method: TEST E: Bacterial Endotoxin [LPS] Induced Lethality in the Guinea Pig
Guinea-pigs are anesthetized by intraperitoneal injection of sodium phenobarbitone (100 mg/kg.) supplemented with sodium pentobarbitone (30 mg/kg) and paralyzed by intramuscular injection of gallamine (10 mg/kg). Animals are ventilated (8 ml/kg, 1 Hz) with a mixture of air and oxygen (40:60, v/v) via a tracheal cannula. Ventilation is monitored at the trachea by a pneumotachograph connected to a differential pressure transducer. […] Blood pressure and heart rate are recorded from the carotid artery using a pressure transducer and a cannula is introduced into the right jugular vein to allow intravenous infusion of test substance min prior to and concomitantly with infusion of LPS at a constant rate (3.0 ml/hr to give 10 mg/kg/hr) from an infusion pump. The left jugular vein is cannulated for administration of (±) propranolol (1 mg/kg) injected as an intravenous bolus. […] Experimental data is stored continuously and, on termination of an experiment, experimental traces or processed data are plotted.
Infusion of [±propanolol] ensures consistent susceptibility to LPS. In anesthetized animals pre-treated with [±] propanalol, infusion of LPS in the above model induces progressive airway obstruction. Death consequential to endotoxin shock usually occurs within ca. 1 hr of terminating LPS infusion.

[4] = tested on: TNFα secretion, THP-1 cells; assay: TEST C: Inhibition of TNFα Secretion (THP-1 cells, γ-interferon/LPS); assay type: cell-based; settings: Homo sapiens, LPS, γ-interferon, 40 hours, hydrogen-oxalate salt
Method: TEST C: Inhibition of TNFα Secretion
900 μl THP-1 cells (0.5 10^6 cells together with 100 U γ-interferon/0.9 ml) are pipetted into 24 well culture plates and followed by 100 μl test substance. After 3 hours at 37° C. in 5% CO2 /95% air, 10 μl LPS 5 μg/ml is added and the incubation continued for a further 40 hours. Appropriate controls are also included. The media are then removed and clarified by centrifugation at 1000 g for 10 min. 1.0 ml digitonin 0.01% is added to the wells to lyse the cells which are loosened by scraping with a rubber policeman and left at 4° C. for 10 min. Lactate dehydrogenase measurements are then performed immediately and the samples stored at […] until the other determinations can be performed. The assays are: IL-1β (medium), TNF-α (medium), and DNA (lysates). IL-1β, and TNF-α assays are determined using commercially available ELISA kits.
The method of Kapuscinski et al Anal. Biochem. (83, 252-257 (1977) is used to assay DNA. 300 μl samples of cell lysate in 0.01% digitonin are mixed with 750 μl tris-HCl buffer pH 7.0 (containing 13.2 mM Na2 SO4), 300 μl H2 O and 150 μl DAPI (4',6-diamidino-2-phenylindole.2HCl) 2 μg/ml. The fluorescence is then measured at 372 nm (excitation) and 454 nm (emission) using a Perkin Elmer 3000 fluorimeter. The samples are read against a standard curve of calf thymus DNA (0.5 to 10 μg/ml) run at the same time. […]

[5] = tested on: methacholine induced bronchoconstriction; assay: TEST J: Suppression of Methacholine (MeCH) Induced Broncho-Constriction in the Rhesus Monkey; assay type: in vivo; settings: hydrogen-oxalate salt
Method: TEST J: Suppression of Methacholine (MeCH) Induced Broncho-Constriction in the Rhesus Monkey
Male rhesus monkeys (body weight 10.3-13.2 kg) are anesthetized with ketamine (20 mg/kg i.m., initial) and maintained with thiopental (8 mg/kg/h i.v.) via an indwelling catheter in the left saphenous vein, throughout the experimental procedure. Animals are allowed to breathe spontaneously, and are placed in the left lateral incumbent position. The larynx, eppiglottis and pharynx are anesthetized (topical xylocaine) allowing introduction and placement of a cuffed 4.5 mm pediatric endotracheal tube.
MeCH is administered as an aerosol (saline vehicle: aerosol generated by a nebulizer operated under an airflow of 6 l/min, mean particle size of 3.5 μm) with a 2 minute exposure, tidal breathing. All tests employ a 0.6 mg/ml solution or 2.5 mg/ml solution in the case of poor MeCH responders. MeCH bronchoconstrictor tests are spaced 30 min apart, with administration of test substance (in a lactose vehicle suspension, 1 mg/ml, 1 ml administered under bronchoscopic control, 1 cm above the carina) 15 min prior to MeCH challenge.
Test substance is administered in a cumulative manner. Bronchodilator activity is estimated as the % inhibition of bronchoconstrictor response to MeCH on resistance.

[6] = tested on: human eosinophils; assay: TEST B: Inhibition of Eosinophil Activation by fMLP (oxidative burst, chemiluminescence); assay type: cell-based; settings: fMLP 1 μM, hydrogen-oxalate salt
Method: TEST B: Inhibition of Eosinophil Activation by formyl-MetLeuPhe (fMLP)
Purified human eosinophils (10^4 /well in 0.2 ml HBSS) are stimulated with fMLP (1 μM) in the presence of lucigenin (25 μM). Inhibition of the oxidative burst (measured as changes in chemiluminescence) is determined from dose response curves using the logistic equation.

[7] = tested on: human PDE IV (neutrophils); assay: TEST A: Human PDE Isoenzyme Inhibition Assay, type IV; assay type: biochemical
Excerpt: C2 H5 OH. For pharmacological experiments it should be diluted at least 1:10,000.]
TEST A: Human PDE Isoenzyme Inhibition Assay
All isoenzyme preparations are derived from human sources. Type III and IV preparations are obtained taking advantage of the predominance of type III isoenzymes in platelets and of type IV isoenzymes in neutrophils applying the following techniques:
Neutrophils (type IV) and platelets (types II and III) are obtained from human blood and sonicated (Branson probe, 4×15 sec.). Human lung (types I and V) is obtained from patients undergoing surgery and homogenized using a Polytron homogenizer (two bursts of 30 sec).
Isoenzyme preparations: PDE III and IV (substrate cAMP 1 μM) preparations consist of low-speed supernates of the platelet and neutrophil homogenates, respectively.

[8] = hemodynamics, plasma glucose and tolerability in conscious dogs; assay type: in vivo, dog; settings: hydrogen-oxalate salt
[9] = tested on: lymphocytes from the spleen of Balb/c and CBA mice; assay: TEST L: Murine Mixed Lymphocyte Reaction; assay type: cell-based; settings: Mus musculus, 120 h, thymidine incorporation, 5 days, hydrogen-oxalate salt
Method: TEST L: Murine Mixed Lymphocyte Reaction
Ca. 0.5×10^6 lymphocytes from the spleen of female (8-10 weeks) Balb/c mice are incubated for 5 days in 0.2 ml cell growth medium with ca. 0.5×10^6 lymphocytes from the spleen of female (8-10 weeks) CBA mice. Test substance is added to the medium at various concentrations. Activity is assessed by ability to suppress proliferation associated DNA synthesis as determined by incorporation of radiolabelled thymidine.

[10] = stock solution of the hydrogen-oxalate salt; assay type: physicochemical; settings: 10% Tween in 80% abs. C2H5OH
Method: [All experiments described below are suitably done using the hydrogen-oxalate salt of the test compound, e.g. compound of example 1. In the case of the example 1 compound a stable 30 mM stock solution of the hydrogen-oxalate salt may be prepared with 10% Tween in 80% abs. C2 H5 OH. For pharmacological experiments it should be diluted at least 1:10,000.]

[11] = tested on: SRS-A induced bronchoconstriction; assay: TEST H experiment 2: Suppression of SRS-A Induced Bronchoconstriction (tracheal instillation, inhaled ovalbumin); assay type: in vivo, guinea pig (Dunkin-Hartley); settings: Cavia porcellus, i.t., hydrogen-oxalate salt
Method: TEST H: Suppression of SRS-A Induced Bronchoconstriction
(§1) Guinea pigs (Dunkin-Hartley, male, 400-600 g) are anesthethized with phenobarbital (100 mg/kg i.p.) and pentobarbital (30 mg/kg i.p.) and paralyzed with gallamine (100 mg/kg i.m.) Animals are ventilated via a tracheal cannula (8 ml/kg, 1 Hz) with a mixture of air and oxygen (45:55 v/v). Blood pressure and heart rate are recorded at the carotid artery. Ventilation is monitored by a Fleisch flow transducer in line with the inspiratory circuit. When making measurements of flow, coincident pressure changes in the thorax are monitored directly via an intrathoracic trochar, permitting display of differential pressure relative to the trachea. From this information in relation to flow and differential pressure, resistance [R1 ] and compliance [Cdyn ] are calculated using a digital respiratory analyzer for each respiratory cycle.
Test animals are passively sensitized 24 hrs. prior to testing by administration of homologous anti-ovalbumin antiserum (1 ml i.v.). […] Allergen challenge is achieved by administration of ovalbumin (OA) and the resultant bronchoconstrictor response is used as a functional read-out of SRS-A activity.
2) In the second, animals are challenged with OA (1.0 or 1.8 mg/ml inhaled over 60 breaths) and the effect of test compound, administered at varying dosage directly into the lung by tracheal instillation, is measured.

[12] = tested on: SRS-A induced bronchoconstriction; assay: TEST H experiment 1: Suppression of SRS-A Induced Bronchoconstriction (i.v. infusion); assay type: in vivo, guinea pig (Dunkin-Hartley); settings: FPL 55712 10 mg/kg i.v.
Method: as §1, with “TEST H: Suppression of SRS-A Induced Bronchoconstriction Guinea” for “Guinea”, “cycle. Test animals are passively sensitized 24 hrs. prior to testing by administration of homologous anti-ovalbumin antiserum (1 ml i.v.). […] Allergen challenge is achieved by administration of ovalbumin (OA) and the resultant bronchoconstrictor response is used as a functional read-out of SRS-A activity. […]” for “cycle.”

[13] = tested on: SRS-A; assay: TEST D: Inhibition of SRS-A Production (ovalbumin challenge); assay type: in vivo, guinea-pig; settings: 10 mg/kg i.v. 1 minute prior to challenge
Method: TEST D: Inhibition of SRS-A Production Guinea-pigs are passively sensitized 24 hrs. prior to testing by i.v. administration of 1 ml homologous anti-ovalbumin antiserum. Prior to antigen challenge test animals are pre-treated with 0.32 mg/kg propanol i.v. (inhibition of endogenous catecholamines), 3.2 mg/kg, i.v. mepyramine (H1 receptor antagonism) and 3.2 mg/kg, i.v. indomethacin (inhibition of cyclo-oxygenase). Allergen challenge is effected by administration of 32 μg/kg, ovalbumin i.v. and the resultant constrictor response on airways resistance used as a functional read out of SRS-A activity. Separate test groups receive 10 mg/kg, i.v. FPL 55712 (an LTD4 receptor antagonist) 1 minute prior to challenge or test substance at varying dosage, i.v. by infusion, beginning 16 minutes prior to challenge.

[14] = up to 0.3 mg/kg i.v. or 0.6 mg/kg p.o.

CCc1cc2cc(OCCO)c(OC)cc2c(-c2cc(OC(C)C)cc(OC(C)C)c2)n1 [Example 1, 1-(3,5-diisopropoxyphenyl)-3-ethyl-6-(2-hydroxyethoxy)-7-methoxy-isoauinoline]
inhibition of PDE IV added to plasma [1]: substantial and long-lasting inhibition | heart rate (rabbit) ([2]; of the order of 1 mg/kg): only slight decrease in heart rate | cardiovascular side effects ([2]; up to the order of 0.3 mg/kg): no cardiovascular side effects | lethality (TEST E) [3]: no animals dying | protection (TEST E) [3]: COMPLETE PROTECTION | IC50 [4]: ~100 nM | ED20 ([5]; Macaca mulatta, inhaled or nasal, MeCH aerosol, test substance in lactose suspension): 0.0414 ± 0.0099 µg/kg | potency less than that of Albuterol (TEST J) ([5]; times less potent than Albuterol): ca. 3.5 × | IC50 [6]: 60 ± 30 nM | IC50 ([7]; TEST A, 1 μM [3H]-cyclic AMP substrate, hydrogen-oxalate salt): 2.9 ± 1.2 nM | fold greater activity in inhibiting the type IV isoenzyme than other isoenzyme preparations tested ([7]; type IV vs other isoenzyme preparations, hydrogen oxalate salt): at least 180 fold | tolerability ([8]; all dosages): generally well tolerated | change in heart rate [8, 14]: no or only minimal change | change in mean arterial pressure [8, 14]: no or only minimal change | change in plasma glucose concentrations [8, 14]: no or only minimal change | IC50 [9]: 12 ± 9 nM | stable stock solution [10]: 30 mM | ED50 ([11]; ovalbumin 1 mg/ml, read-out: ED50 vs. ovalbumin @1 mg/ml): 5 µg/kg | ED50 ([11]; ovalbumin 1.8 mg/ml, read-out: ED50 vs. ovalbumin @1.8 mg/ml): 50 µg/kg

CCCc1c(OCC(O)COc2ccc3c(=O)cc(C(=O)O)oc3c2CCC)ccc(C(C)=O)c1O (stereo not drawn) [FPL 55712]
bronchoconstrictor effect of OA (experiment 1) [12]: abolished | effect on bronchoconstriction (TEST D) [13]: abolition of bronchoconstriction
